Where a name gives a salt, the structure may show the parent alone. Read-outs that look alike come from different tables or passages of the source.
Tests used:
[1] = target: T1, serotonin re-uptake (Rattus norvegicus, UniProt P31652); test: Serotonin re-uptake inhibitory activity (synaptosome, [3H]5-HT); assay type: biochemical; conditions: synaptosome from rat whole brain except cerebellum; [3H]5-HT, 37° C.; read-out: IC50 (nM) Serotonin re-uptake inhibitory activity
T1 construct: synaptosome prepared from rat whole brains except the cerebellums; from tissue; host or cells: synaptosomes from rat whole brain except the cerebellum
Procedure: Serotonin re-uptake inhibitory activity was determined using synaptosome prepared from rat whole brains except the cerebellums. Briefly, 10 μl of DMSO solution-dissolved test substance (control group; DMSO solution alone) was added to 1 ml of synaptosome and incubated for 5 min at 37° C. (in the control, DMSO alone was added to the synaptosome and incubated at 4° C.). Furthermore, 10 μl of [^3H]5-HT solution (final concentration: 10 μM as a total concentration of 5-HT, 100 nM as [^3H]5-HT) was added and incubated for 5 min at 37° C. Then 4 ml of ice-cold saline was added to stop the response. The response solution was filtered, 4 ml of saline was added, and the solution was once again filtered. Furthermore, 5 ml of Pico-Fluor was added, then ^3H levels on filter papers were counted by a liquid scintillation counter. Concentrations of test compounds to inhibit serotonin re-uptake by 50% (IC50) were calculated.

[2] = target: T2, acetylcholinesterase (Mus musculus, UniProt P21836); test: biochemical
T2 construct: phosphate buffer solution containing the brain homogenate; from tissue; host or cells: mouse whole brain homogenate
T2 sequence (P21836 32-614): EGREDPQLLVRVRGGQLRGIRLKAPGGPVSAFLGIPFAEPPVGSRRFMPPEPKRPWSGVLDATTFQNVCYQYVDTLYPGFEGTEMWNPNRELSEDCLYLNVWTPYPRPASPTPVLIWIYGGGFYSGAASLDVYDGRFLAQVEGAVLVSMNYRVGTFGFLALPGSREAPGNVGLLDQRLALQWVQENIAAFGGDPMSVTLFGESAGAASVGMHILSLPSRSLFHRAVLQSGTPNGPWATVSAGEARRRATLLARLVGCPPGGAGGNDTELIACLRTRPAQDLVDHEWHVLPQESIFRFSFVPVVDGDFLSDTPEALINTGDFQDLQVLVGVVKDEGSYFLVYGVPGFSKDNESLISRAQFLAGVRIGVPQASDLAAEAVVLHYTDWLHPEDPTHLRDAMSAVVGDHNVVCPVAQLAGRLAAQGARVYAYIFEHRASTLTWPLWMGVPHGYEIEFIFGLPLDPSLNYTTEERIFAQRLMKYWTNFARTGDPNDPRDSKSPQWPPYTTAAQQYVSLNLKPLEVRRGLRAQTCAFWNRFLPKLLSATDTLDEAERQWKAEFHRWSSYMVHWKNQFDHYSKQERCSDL

T1 sequence (P31652 whole entry): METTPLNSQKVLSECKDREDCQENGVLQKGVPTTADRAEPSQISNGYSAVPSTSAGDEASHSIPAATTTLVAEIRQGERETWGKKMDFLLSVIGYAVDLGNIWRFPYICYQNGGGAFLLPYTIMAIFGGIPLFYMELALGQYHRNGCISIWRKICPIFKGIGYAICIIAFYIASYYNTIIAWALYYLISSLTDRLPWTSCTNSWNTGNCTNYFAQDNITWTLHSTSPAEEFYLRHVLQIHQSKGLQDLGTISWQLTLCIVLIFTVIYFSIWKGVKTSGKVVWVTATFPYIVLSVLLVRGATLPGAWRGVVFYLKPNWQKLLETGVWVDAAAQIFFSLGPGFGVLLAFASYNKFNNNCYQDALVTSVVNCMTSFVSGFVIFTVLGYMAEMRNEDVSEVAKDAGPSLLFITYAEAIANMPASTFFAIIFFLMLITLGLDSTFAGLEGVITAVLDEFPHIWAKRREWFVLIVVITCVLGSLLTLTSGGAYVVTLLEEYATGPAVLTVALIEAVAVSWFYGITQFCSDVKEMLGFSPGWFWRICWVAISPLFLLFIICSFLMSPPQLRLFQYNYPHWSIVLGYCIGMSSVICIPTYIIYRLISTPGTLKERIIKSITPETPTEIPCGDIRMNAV

## CNC(CCOc1cccc(F)c1)c1ccc(OC(=O)N(C)C)cc1 (stereo not drawn) [Test Compound 68, 4-[3-(3-Fluorophenoxy)-1-methylaminopropyl]phenyl dimethylcarbamate hydrochloride]
[1]
  IC50: 145 nM
[2]
  IC50: 580 nM

## CN(C)C(=O)Oc1ccc([C@@H](CCOc2ccc(F)c(F)c2)N(C)C)cc1 [Test Compound 152, (R)-4-[3-(3,4-Difluorophenoxy)-1-dimethylaminopropyl]phenyl dimethylcarbamate hydrochloride]
[1]
  IC50: 67 nM
[2]
  IC50: 310 nM

## CNC(CCOc1ccc([N+](=O)[O-])cc1)c1cccc(OC(=O)N(C)C)c1 (stereo not drawn) [Test Compound 95, 3-[1-Methylamino-3-(4-nitrophenoxy)propyl]phenyl dimethylcarbamate hydrochloride]
[1]
  IC50: 221 nM
[2]
  IC50: 52 nM

## CN(C)C(=O)Oc1ccc(C(CCOc2ccc(Cl)cc2)N(C)C)cc1 (stereo not drawn) [Test Compound 41, 4-[3-(4-Chlorophenoxy)-1-dimethylaminopropyl]phenyl dimethylcarbamate hydrochloride]
[1]
  IC50: 507 nM
[2]
  IC50: 79 nM

## CN(C)C(=O)Oc1cccc(C(CCOc2ccc([N+](=O)[O-])cc2)N(C)C)c1 (stereo not drawn) [Test Compound 104, 3-[1-Dimethylamino-3-(4-nitrophenoxy)propyl]phenyl dimethylcarbamate hydrochloride]
[1]
  IC50: 176 nM
[2]
  IC50: 53 nM

## CN[C@H](CCOc1cccc(Cl)c1)c1ccc(OC(=O)N(C)C)cc1 [Test Compound 61, (R)-4-[3-(3-Chlorophenoxy)-1-methylaminopropyl]phenyl dimethylcarbamate hydrochloride]
[1]
  IC50: 182 nM
[2]
  IC50: 230 nM

## CN(C)C(=O)Oc1ccc([C@H](CCOc2ccc([N+](=O)[O-])cc2Cl)N(C)C)cc1 [Test Compound 129, (S)-4-[3-(2-Chloro-4-nitrophenoxy)-1-dimethylaminopropyl]phenyl dimethylcarbamate hydrochloride]
[1]
  IC50: 650 nM
[2]
  IC50: 64 nM

## CNC(CCOc1ccc(Cl)c(F)c1)c1ccc(OC(=O)N(C)C)cc1 (stereo not drawn) [Test Compound 55, 4-[3-(4-Chloro-3-fluorophenoxy)-1-methylaminopropyl]phenyl dimethylcarbamate hydrochloride]
[1]
  IC50: 60 nM
[2]
  IC50: 280 nM

## CN(C)C(=O)Oc1ccc([C@@H](CCOc2ccc([N+](=O)[O-])cc2Cl)N(C)C)cc1 [Test Compound 130, (R)-4-[3-(2-Chloro-4-nitrophenoxy)-1-dimethylaminopropyl]phenyl dimethylcarbamate hydrochloride]
[1]
  IC50: 88 nM
[2]
  IC50: 42 nM

## CN[C@H](CCOc1ccc([N+](=O)[O-])cc1Cl)c1ccc(OC(=O)N(C)C)cc1 [Test Compound 128, (R)-4-[3-(2-Chloro-4-nitrophenoxy)-1-methylaminopropyl]phenyl dimethylcarbamate hydrochloride]
[1]
  IC50: 70 nM
[2]
  IC50: 15 nM

## CN[C@@H](CCOc1ccc(F)c(F)c1)c1ccc(OC(=O)N(C)C)cc1 [Test Compound 162, (S)-4-[3-(3,4-Difluorophenoxy)-1-methylaminopropyl]phenyl dimethylcarbamate hydrochloride]
[1]
  IC50: 594 nM
[2]
  IC50: 790 nM

## CN(C)C(=O)Oc1ccc2c(c1)C=CCN(C)C2CCOc1ccc(F)cc1Cl (stereo not drawn) [Test Compound 195, 2-Methyl-1-[2-(2-chloro-4-fluorophenoxy) -ethyl]-2,3-dihydro-1H-benzo[c]azepin-7-yl dimethylcarbamate hydrochloride]
[1]
  IC50: 44 nM
[2]
  IC50: 50 nM

## CN(C)C(=O)Oc1ccc2c(c1)CCN(C)C2CCOc1ccc([N+](=O)[O-])cc1 (stereo not drawn) [Test Compound 187, 2-Methyl-1-[2-(4-nitrophenoxy) -ethyl]-1,2,3,4-tetrahydroisoquinolin-6-yl dimethylcarbamate hydrochloride]
[1]
  IC50: 940 nM
[2]
  IC50: 11 nM

## CN[C@@H](CCOc1cccc(Cl)c1)c1ccc(OC(=O)N(C)C)cc1 [Test Compound 81, (S)-4-[3-(3-Chlorophenoxy)-1-methylaminopropyl]phenyl dimethylcarbamate hydrochloride]
[1]
  IC50: 228 nM
[2]
  IC50: 320 nM

## CNC(CCOc1ccc(F)c(F)c1)c1ccc(OC(=O)N(C)C)cc1 (stereo not drawn) [Test Compound 54, 4-[3-(3,4-Difluorophenoxy)-1-methylaminopropyl]phenyl dimethylcarbamate hydrochloride]
[1]
  IC50: 166 nM
[2]
  IC50: 670 nM

## CN[C@H](CCOc1ccc([N+](=O)[O-])cc1)c1ccc(OC(=O)N(C)C)c(C)c1 [Test Compound 184, (R)-4-[3-(4-Nitrophenoxy)-1-methylaminopropyl]-2-methylphenyl dimethylcarbamate hydrochloride]
[1]
  IC50: 49 nM
[2]
  IC50: 56 nM

## CN(C)C(=O)Oc1ccc2c(c1)C(CCOc1ccc(Cl)cc1)N(C)CC2 (stereo not drawn) [Test Compound 191, 2-Methyl-1-[2-(4-chlorophenoxy)-ethyl]-1,2,3,4-tetrahydroisoquinolin-7-yl dimethylcarbamate hydrochloride]
[1]
  IC50: 520 nM
[2]
  IC50: 265 nM

## CNC(CCOc1cccc(Cl)c1)c1ccc(OC(=O)N(C)C)cc1 (stereo not drawn) [Test Compound 38, 4-[3-(3-chlorophenoxy)-1-methylaminopropyl]phenyl dimethylcarbamate hydrochloride]
[1]
  IC50: 199 nM
[2]
  IC50: 175 nM

## CN(C)C(=O)Oc1cccc([C@@H](CCOc2ccc([N+](=O)[O-])cc2)N(C)C)c1 [Test Compound 136, (R)-3-[3-(4-Nitrophenoxy)-1-dimethylaminopropyl]phenyl dimethylcarbamate hydrochloride]
[1]
  IC50: 236 nM
[2]
  IC50: 980 nM

## CN(C)C(=O)Oc1ccc(C(CCOc2ccc(F)cc2)N(C)C)cc1 (stereo not drawn) [Test Compound 31, hydrochloride]
[1]
  IC50: 323 nM
[2]; mouse whole brain homogenate, acetylthiocholine/DTNB, absorbance 412 nm, read-out: IC50 (nM) Acetylcholinesterase inhibitory activity
  IC50: 440 nM

## CN[C@@H](CCOc1ccc([N+](=O)[O-])cc1Cl)c1ccc(OC(=O)N(C)C)cc1 [Test Compound 127, (S)-4-[3-(2-Chloro-4-nitrophenoxy)-1-methylaminopropyl]phenyl dimethylcarbamate hydrochloride]
[1]
  IC50: 856 nM
[2]
  IC50: 40 nM

## CNC(CCOc1ccc([N+](=O)[O-])cc1Cl)c1ccc(OC(=O)N(C)C)cc1 (stereo not drawn) [Test Compound 124, 4-[3-(2-Chloro-4-nitrophenoxy)-1-methylaminopropyl]phenyl dimethylcarbamate hydrochloride]
[1]
  IC50: 110 nM
[2]
  IC50: 64 nM

## CN(C)C(=O)Oc1ccc2c(c1)CCN(C)[C@@H]2CCOc1ccc([N+](=O)[O-])cc1Cl [Test Compound 190, 2-Methyl-1-(R)-[2-(2-chloro-4-nitrophenoxy)-ethyl]-1,2,3,4-tetrahydroisoquinolin-6-yl dimethylcarbamate hydrochloride]
[1]
  IC50: 460 nM
[2]
  IC50: 12 nM

## CN(C)C(=O)Oc1ccc(C(CCOc2ccc(F)c(F)c2)N(C)C)cc1 (stereo not drawn) [Test Compound 76, 4-[3-(3,4-Difluorophenoxy)-1-dimethylaminopropyl]phenyl dimethylcarbamate hydrochloride]
[1]
  IC50: 124 nM
[2]
  IC50: 300 nM

## CN(C)C(=O)Oc1ccc2c(c1)CCN(C)C2CCOc1ccc([N+](=O)[O-])cc1Cl (stereo not drawn) [Test Compound 189, 2-Methyl-1-[2-(2-chloro-4-nitrophenoxy)-ethyl]-1,2,3,4-tetrahydroisoquinolin-6-yl dimethylcarbamate hydrochloride]
[1]
  IC50: 300 nM
[2]
  IC50: 6 nM

## CNC(CCOc1cccc2ccccc12)c1ccc(OC(=O)N(C)C)cc1 (stereo not drawn) [Test Compound 179, 4-[3-(Naphthalen-1-yloxy)-1-methylaminopropyl]phenyl dimethylcarbamate hydrochloride]
[1]
  IC50: 86 nM
[2]
  IC50: 372 nM

## Cc1cc(OCCC2c3ccc(OC(=O)N(C)C)cc3CCN2C)ccc1Cl (stereo not drawn) [Test Compound 188, 2-Methyl-1-[2-(4-chloro-3-methylphenoxy)-ethyl]-1,2,3,4-tetrahydroisoquinolin-6-yl dimethylcarbamate hydrochloride]
[1]
  IC50: 150 nM
[2]
  IC50: 53 nM
